One block for each molecule: values may come before it.
Experiments:
[1] = test system: dsDNA (ds-oligonucleotide, oligonucleotides 1 and 2) (DNA, duplex) AAATTAATATGTATTGTATATAAATTATT/AATAATTTATATACAATACATATTAATTT; assay: UV melting (260 nm); details: 0.1 M NaCl, 0.01 M MgCl2
[2] = test system: dsDNA (ds-oligonucleotide, oligonucleotides 1 and 2) (DNA, duplex) AAATTAATATGTATTGTATATAAATTATT/AATAATTTATATACAATACATATTAATTT; assay: circular dichroism; details: Na+ (TBS); TBS pH 7.4, 1 mM EDTA, 37 °C; 2.5 µM compound, 2.5 µM duplex

Structure (SMILES): CN(CCCNC=C1C(=O)Oc2ccccc2C1=O)CCCNC=C1C(=O)Oc2ccccc2C1=O
- ΔTm ([1]; derived from two Tm (64.07 ± 0.14, control 64.97 ± 0.20), 15 µM, change called negligible): -0.90 °C

Structure (SMILES): Nc1c2ccccc2nc2ccccc12
- ΔTm ([1]; derived from two Tm (78.00 ± 0.00, control 64.97 ± 0.20), 100 µM): 13.03 °C

Structure (SMILES): O=C1Oc2ccccc2C(=O)C1=CNCCCN1CCN(CCCNC=C2C(=O)Oc3ccccc3C2=O)CC1
- ΔTm ([1]; derived from two Tm (64.02 ± 0.00, control 64.97 ± 0.20), 15 µM, change called negligible): -0.95 °C

Other lines, results leading:

- ΔTm ([1]; derived from two Tm (64.5 ± 0.71, control 64.97 ± 0.20), 15 µM, change called negligible): -0.47 °C
Structure (SMILES): CN(CCCNC(=O)c1cnc2ccccc2c1N)CCCNC(=O)c1cnc2ccccc2c1N

- ΔTm ([1]; derived from two Tm (70.7 ± 0.71, control 64.97 ± 0.20), text says 7, 15 µM, 0.1% DMSO): 5.73 °C
- binding [2]: yes
Structure (SMILES): Nc1c(C(=O)NCCCN2CCN(CCCNC(=O)c3cnc4ccccc4c3N)CC2)cnc2ccccc12
